Experimental data taken from US11147782B1, “GHB formulation and method for its manufacture” (JAZZ PHARMACEUTICALS IRELAND LIMITED, priority 2015, dated 2021).

Columns and labels:
[1] = Affinity for the exchange site of the anion exchange resin, estimated from pKa; assay type: physicochemical; conditions: estimated from pKa relative to other short-chain fatty acids
From the text: The affinity can be estimated based on the pKa of GHB (4.44) relative to other short-chain fatty acids for which affinities are known.

[2] = Xyrem solution is 500 mg/mL (42 wt %); solubility limit considerably higher; cited from earlier work

Q: With `O=C(O)O` [Bicarbonate] as the molecule, how does the “affinity relative to chloride on the anion exchange resin” value [1] read?
A: Its value is “about 27%”.

Q: With `O=C(O)CCCO` [sodium oxybate, Sodium oxybate] as the molecule, how does the “solubility limit in water” value [2] read?
A: Its value is over 500 mg/mL.
